Measured values from patent US20240239774A1, “SOLUBLE ADENYLYL CYCLASE (SAC) INHIBITORS AND USES THEREOF” (Cornell University, priority 2021, published 2024).

Key:
immobilized sAC protein = experiment: Binding kinetics by surface plasmon resonance
Method: After coupling, remaining reactive groups on the chip's surface were blocked with 1 M ethanolamine followed by 350 mM EDTA to wash away any free Ni^2+. […] All experiments included reference channels; i.e., inhibitor run over parallel channels without immobilized protein. Binding kinetics were determined by subtracting responses in the reference channels from responses in the active channels. Curves were fitted, and kon and koff values were determined using the Biacore 8K Insight Evaluation Software Version 2.0 (Cytiva) and a 1:1 binding kinetics model.

mouse sperm [1] = experiment: Ex vivo sperm tyrosine phosphorylation (Western blot) from injected mice; type: in vivo; conditions: 50 mg/kg i.p., one hour post injection
Method: After 15 minutes swim-out at 37° C., sperm from two caudae were combined and counted using a hematocytometer. For capacitation, sperm were incubated for 90 minutes in TYH containing 3 mg/ml BSA and 25 mM NaHCO3 in a 37° C. incubator. To control for the consequences of dilution during isolation of epididyrnal mouse sperm for ex vivo assays, the ability for bicarbonate to induce a prototypical pattern of tyrosine phosphorylation (pY) which is a widely used molecular hallmark of capacitation was assessed [Reference 80]. Bicarbonate-induced pY is known to be sAC dependent in vitro [References 37, 46, 62]. For experiments studying sperm from injected mice, ‘swim out’ was performed in 200 μl TYH, which corresponded to a 1:10 dilution from epididymis ([…] in 200 μl buffer). Capacitation induced changes were assessed by adding 50 μl of ‘swim out’ sperm to increasing volumes of non-capacitating or capacitating TYH buffer.
Mouse sperm from vehicle or inhibitor-injected mice were isolated 1 hour from male mice injected (i.p.) with 150 μl of solution containing sAC inhibitor or vehicle. Sperm were diluted 1:20 to 1:1000 in capacitating TYH media. As control, sperm from vehicle-injected mice were diluted 1:1000 in non-capacitating and capacitating TYH buffer. The samples were incubated for 90 minutes, washed with 1 ml PBS and sedimented by centrifugation at 2,000×g for 3 minutes. The sedimented sperm were resuspended in 15 μl 2× Laemmli sample buffer [Reference 83], heated for 5 minutes at 95° C., supplemented with 8 μl β-mercaptoethanol and heated again for 5 minutes at 95° C. For Western blot analysis, proteins were transferred onto PVDF membranes (Thermo Scientific), probed with anti-phosphotyrosine antibodies, and analyzed using a cherniluminescence detection system. Image lab (Bio-Rad) was used for densitometric analysis of Western blots.

[2] = tested on: wild type (WT) C57B1/6 mouse eyes; experiment: Intraocular pressure (IOP) study; type: in vivo; conditions: one hour post ip injection
Method: A mouse was anesthetized via intraperitoneal (ip) injection of room temperature ketamine/xylazine. Anesthesia was assessed by pinching back. The anesthetized mouse was placed on a platform. The anterior chamber was cannulated using a 33-gauge stainless steel needle. The needle was inserted anterior to the limbus and through the cornea. The cannula was connected to a pressure transducer using teflon tubing and was calibrated to a water height equivalent of 0 mm Hg. The transducer signal was amplified, converted to a digital signal, and the voltage was recorded using LabScribe3 software. IOP was calculated by comparing the change in voltage to a standard calibration curve generated at the end of each experiment using the water height column.

[3] = tested on: mouse oocytes with capacitated wild-type sperm; experiment: In vitro fertilization; type: cell-based
Method: In vitro fertilization: On the day of preparation, sperm were capacitated for 90 min in HTF medium (EmbryoMax Human Tubal Fluid; Merck Millipore). 100 μl drops of HTF were covered with medium/oil mixture (HTF mixed 1:1 with mineral oil), and 10^5 sperm were added to each drop. Cumulus-enclosed oocytes were prepared from the oviducts of superovulated females and added to the drops. […] The number of 2-cell stages was evaluated after 24 hr.

human sperm = experiment: Acrosome reaction assay; type: cell-based; conditions: 5 μM Example 1 or 10 nM Example 133; 10 μM progesterone
Method: For analysis of acrosomal exocytosis, 100 μl of 1×10^7 sperm/ml were capacitated for 90 minutes in TYH buffer supplemented with 3 mg/ml BSA and 25 mM NaHCO3 (mouse sperm) or HTF buffer supplemented with […] HSA and 25 mM NaHCO3 (human sperm). sAC inhibitors were added with capacitating buffer; 0.1% DMSO was used as vehicle control. Acrosome reaction was induced by incubating mouse sperm with 50 mouse solubilized zonae pellucidae for 15 minutes at 37° C., or human sperm with 10 μM progesterone for 30 minutes at 37° C. The sperm suspensions were sedimented by centrifugation at 2,000×g for 5 minutes and the sedimented sperm were resuspended in 100 μl PBS buffer. Samples were air-dried on microscope slides and fixed for 30 minutes in 100% ethanol at room temperature (RT). For acrosome staining, mouse and human sperm were incubated for 30 minutes in the dark with 5 μg/ml PNA-FITC or 5 μg/ml PSA-FITC, respectively, and counterstained with 2 μg/ml DAPI. After curing, slides were analyzed using a Zeiss LSM 880 Laser Scanning Confocal Microscope; images were captured with two photomultiplier and one Gallium Arsenide Phosphide detector using ZEN Imaging software. For each condition, at least 600 cells were analyzed using ImageJ 1.52.

mouse sperm [4] = experiment: Acrosome reaction assay; type: cell-based; conditions: 5 μM Example 1 or 10 nM Example 133; capacitating media 90 minutes
Method: Zonae pellucidae were isolated from female mice superovulated by intraperitoneal injection of 10 I.U. […] 3 days before the experiment. 14 hours before oocyte isolation, mice were injected with 10 I.U. […]. Oviducts were collected following cervical dislocation. Cumulus-enclosed oocytes were separated from the oviducts and placed into TYH buffer containing 300 μg/ml hyaluronidase. After 15 minutes, cumulus-free oocytes were transferred into fresh buffer and washed twice. Zonae pellucidae and oocytes were separated by shear forces generated by expulsion from […] pasteur pipettes. Zona pellucidae were counted, transferred into fresh buffer and heat-solubilized by incubation for 10 minutes at 65° C.
For analysis of acrosomal exocytosis, 100 μl of 1×10^7 sperm/ml were capacitated for 90 minutes in TYH buffer supplemented with 3 mg/ml BSA and 25 mM NaHCO3 (mouse sperm) or HTF buffer supplemented with […] HSA and 25 mM NaHCO3 (human sperm). sAC inhibitors were added with capacitating buffer; 0.1% DMSO was used as vehicle control. […] After curing, slides were analyzed using a Zeiss LSM 880 Laser Scanning Confocal Microscope; images were captured with two photomultiplier and one Gallium Arsenide Phosphide detector using ZEN Imaging software. For each condition, at least 600 cells were analyzed using ImageJ 1.52.

[5] = swim out sperm minimally diluted

Cc1c(Cc2ccccc2)c(-c2cc(Cl)nc(N)n2)nn1C [Example 1, 4-(4-benzyl-1,5-dimethyl-pyrazol-3-yl)-6-chloro-pyrimidin-2-amine]
off-rate (T1/2) (immobilized sAC protein): 0.333 min
capacitation-induced tyrosine phosphorylation (pY) pattern ex vivo (mouse sperm [1]; diluted 25 fold): restored
capacitation-induced tyrosine phosphorylation (pY) pattern ex vivo (mouse sperm [1]; [5]): blocked
intraocular pressure (IOP) [2]: dose dependently elevates IOP
amount of 2-cell stage oocytes ([3]; 5 μM, control 30%): 10%
fertilization in vitro ([3]; 50 μM): fully blocked fertilization

Nc1nc(Cl)cc(-c2nn(C(F)F)cc2Cc2ccccc2OCCN2CCOC[C@H]2CO)n1 [Example 133]
off-rate (T1/2) (immobilized sAC protein): 75.8 min
capacitation-induced tyrosine phosphorylation (pY) pattern ex vivo (mouse sperm [1]; diluted 100 fold): remained blocked
capacitation-induced tyrosine phosphorylation (pY) pattern ex vivo (mouse sperm [1]; [5]): blocked
blocking acrosome reaction induced by progesterone (human sperm): more potent than Example 1
blocking acrosome reaction induced by zona pellucidae (mouse sperm [4]): more potent than Example 1
